This is an account of results in patent publication US9206164B2, “Pyrazole compounds as CRTH2 antagonists” (Boehringer Ingelheim International GmbH, priority 2011, dated 2015).

Broadly, the Ki is a measure of affinity in units of concentration, obtained from inhibition or displacement. Read a high Ki as a looser hold on the target.

Molecules are shown by their SMILES.

Chain of human CRTH2 receptor (Q9Y5Y4 whole entry): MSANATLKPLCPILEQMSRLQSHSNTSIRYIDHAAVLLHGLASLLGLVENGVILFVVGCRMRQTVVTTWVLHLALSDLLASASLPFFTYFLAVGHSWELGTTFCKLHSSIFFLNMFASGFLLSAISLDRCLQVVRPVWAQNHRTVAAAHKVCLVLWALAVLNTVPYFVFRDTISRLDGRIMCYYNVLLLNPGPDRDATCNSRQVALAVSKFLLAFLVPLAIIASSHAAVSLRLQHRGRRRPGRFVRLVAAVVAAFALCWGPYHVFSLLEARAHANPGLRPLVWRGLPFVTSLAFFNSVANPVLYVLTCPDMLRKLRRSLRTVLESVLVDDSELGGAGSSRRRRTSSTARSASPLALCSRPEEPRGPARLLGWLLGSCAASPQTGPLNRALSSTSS

This assay addresses human CRTH2 receptor (Homo sapiens (Human), UniProt Q9Y5Y4). In words: CRTH2 receptor radioligand binding assay (SPA, [3H]-PGD2 displacement). As to conditions: antagonistic activities of selected compounds. As for the experimental part: The binding of CRTH2 antagonists is determined using membranes prepared from Chinese hamster ovary cells (CHO-K1 cells) transfected with the human CRTH2 receptor (CHO-K1-hCRTH2 cells, Perkin Elmer, Cat No ES-561-C). To produce cell membranes the CHO-K1-hCRTH2 cells are cultured in suspension in CHO SFMII medium supplemented with 400 μg/ml G418. The cells are harvested by centrifugation at 300 g for 10 min at room temperature. The cell pellet is resuspended in Phosphate Buffer Saline (PBS) including a protease inhibitor mix (Complete, Roche) and adjusted to a concentration of 10E7 cells/ml. The CHO-K1-hCRTH2 cells are disrupted by nitrogen […] to obtain the membrane preparation. Cell debris is removed by centrifugation (500 g at 4° C., 30 min) and the supernatant is transferred into fresh tubes followed by a second centrifugation at 40000 g for 1 h at 4° C. to sediment the membranes. The membranes are suspended in SPA incubation buffer (50 mM Tris HCl, 10 mM MgCl2, 150 mM NaCl, 1 mM EDTA, pH 7.4) without bovine serum albumin, homogenized by passing through a single use needle (Terumo, 23G×1″), and stored in aliquots at −80° C.
The CRTH2 receptor binding assay is performed in a scintillation proximity assay (SPA) format with the radioligand [^3H]-PGD2 (Perkin Elmer, NET616000MC). CHO-K1-hCRTH2 cell membranes are again homogenized by passing through a single use needle (Terumo, 23G×1″) and diluted in SPA incubation buffer in suitable concentrations (0.5-10 μg protein/well). The SPA assay is set up in 96 well microtiter plates (Perkin Elmer, CatNo. 6005040) in SPA incubation buffer with a final volume of 200 μl per well and final concentration of 50 mM Tris-HCl, 10 mM MgCl2, 150 mM NaCl, 1 mM EDTA pH 7.4, 0.1% bovine serum albumin). The SPA assay mixture contains 60 μl of the membrane suspension, 80 μl of Wheat Germ Agglutinin coated PVT beads (GE Healthcare, RPNQ-0001, 0.3 mg/well), 40 μl of [^3H]-PGD2 diluted in SPA buffer to a final concentration of 1 nM (50 000 dpm) and 20 μl of the test compound (dissolved in dimethylsulfoxid). The SPA assay mixture is incubated for 3 h at room temperature. Bound radioactivity is determined with a scintillation counter (Micro Beta Trilux, Wallac).
The binding of [^3H]-PGD2 to CHO-K1-hCRTH2 cell membranes is determined in the absence (total binding, Bo) and presence (non-specific binding, NSB) of unlabelled PGD2 (1 μM, Cayman Chemical, Cat No 12010) or a reference CRTH2 antagonist (10 μM CAY10471, Cayman Chemical, Cat No 10006735).
Determination of the affinity of a test compound is calculated by subtraction of the non-specific binding (NSB) from the total binding (Bo) or the binding in the presence of the test compound (B) at a given compound concentration. The NSB value is set to 100% inhibition. The Bo−NSB value is set to 0% inhibition.
% inhibition values were obtained at a defined compound concentration, e.g. at 1 μM, % inhibition of the test compound was calculated by the formula 100−((B−NSB)*100/(Bo−NSB)). % inhibition values above 100% are founded by assay variance.
Compound `Cc1nn(Cc2ccc(-c3nc4c(F)c(F)ccc4[nH]3)cc2F)c(C)c1CC(=O)O` [Compound 105] displayed a Ki of 5.1 nM. This counts as single-digit nanomolar.
To `Cc1nn(Cc2ccc(-c3nc4cc(C#N)ccc4[nH]3)cc2)c(C)c1CC(=O)O` [Compound 62] belongs 18.4 nM; to `Cc1nn(Cc2ccc(-c3nc4ccccc4n3C)cc2)c(C)c1CC(=O)O` [Compound 30], 753 nM.
To `Cc1nn(Cc2ccc(-c3nc4c(Cl)cc(Cl)cc4[nH]3)cc2F)c(C)c1CC(=O)O` [Compound 73] belongs 2.5 nM.
To `CCc1nn(Cc2ccc(-c3nc4c(F)cc(F)cc4[nH]3)cc2)c(CC)c1CC(=O)O` [Compound 50] belongs 1.1 nM.
`Cc1cc(Cn2nc(C)c(CC(=O)O)c2C)ccc1-c1nc2ccccc2[nH]1` [Compound 22] yielded a Ki of 21.9 nM.
Then `CCc1nn(Cc2ccc(-c3nc4ccc(C(F)(F)F)cc4[nH]3)cc2)c(CC)c1CC(=O)O` [Compound 20], with 0.2 nM; and `Cc1nn(Cc2ccccc2-c2cc3ccc(Cl)cc3[nH]2)c(C)c1CC(=O)O` [Compound 8], with 394 nM.
The compound `CCc1nn(Cc2ccc(-c3nc4cc(C)c(Cl)cc4[nH]3)cc2)c(CC)c1CC(=O)O` [Compound 55] registered a Ki of 0.5 nM.
Then `Cc1nn(Cc2ccc(-c3nc4cncc(C)c4[nH]3)cc2F)c(C)c1CC(=O)O` [Compound 85], with 683 nM; and `CCc1nn(Cc2ccc(-c3nc4cc(F)ccc4[nH]3)cc2)c(CC)c1CC(=O)O` [Compound 56], with 1.3 nM; and `Cc1nn(Cc2ccc(-c3nc4cc(F)c(Cl)cc4[nH]3)cc2F)c(C)c1CC(=O)O` [Compound 102], with 2.1 nM.
To `CCc1nn(Cc2ccc(-c3nc4cc(Cl)c(Cl)cc4[nH]3)cc2)c(CC)c1CC(=O)O` [Compound 16] belongs 0.2 nM; to `Cc1nn(Cc2ccc(-c3nc4cc(Cl)cnc4[nH]3)cc2)c(C)c1CC(=O)O` [Compound 40], 12.4 nM; to `Cc1nn(Cc2ccc(-c3nc4ccccc4[nH]3)cc2)c(C)c1CC(=O)O` [Compound 14], 13.4 nM.
`Cc1nn(Cc2ccc(-c3nc4cc(F)c(Cl)cc4[nH]3)cc2)c(C)c1CC(=O)O` [Compound 53] registered a Ki of 2.3 nM.
Then `Cc1nn(Cc2ccc(-c3nc4cc(Cl)ccc4n3C)cc2)c(C)c1CC(=O)O` [Compound 25], with 176 nM.
In turn, `COc1ccc2[nH]c(-c3ccc(Cn4nc(C)c(CC(=O)O)c4C)cc3)nc2n1` [Compound 44] returned a Ki of 9.6 nM.
To `Cc1nn(Cc2ccc(-c3cc4ccc(C(F)(F)F)cc4[nH]3)cc2)c(C)c1CC(=O)O` [Compound 4] belongs 0.3 nM; to `Cc1nn(Cc2ccc(-c3nc4cc(Br)ccc4[nH]3)cc2F)c(C)c1CC(=O)O` [Compound 94], 1.6 nM; to `CCc1nn(Cc2ccc(-c3nc4c(Cl)cc(Cl)cc4[nH]3)cc2F)c(CC)c1CC(=O)O` [Compound 104], 0.7 nM.
Compound `Cc1nn(Cc2ccc(-c3nc4c(Cl)cc(Cl)cc4[nH]3)cc2)c(C)c1CC(=O)O` [Compound 66] displayed a Ki of 1 nM.
As to `Cc1nn(Cc2ccc(-c3cc4ccc(Cl)cc4[nH]3)cc2F)c(C)c1CC(=O)O` [Compound 6], the inhibition constant (Ki) came to 0.8 nM.
